Test results reported in US11680062B2, “3,4-methylenedioxyphenylimidazolylethanonexime ether derivative, preparation method and use thereof, and drug for the treatment of Alzheimer's disease” (NORTHWEST A&F UNIVERSITY, priority 2021, dated 2023).
Where two headings read alike, the source gives them in different places.

Tests used:
[1] = test system: NO production in lipopolysaccharide-induced BV-2 microglia; test: Inhibition of NO production in lipopolysaccharide-induced BV-2 microglia; type: cell-based; settings: Mus musculus
5×FAD transgenic mice [2] = test: Barnes maze test (learning and memory ability); type: in vivo; settings: 5×FAD mice, 4 weeks
Protocol: (§1) The AD model mice used are 5×FAD transgenic mice, purchased from the Jackson Laboratory (JAX), USA. The transgenic mice have Swedish (K670N/M671L), Florida (I716V) and London (V717I) mutations in amyloid precursor protein (APP), and M146L and L286V mutations in PSEN1.
(§2) All mice were fed and watered ad libitum at 22±2° C. with a humidity of 50±10% and a 12 h light/dark cycle until 6 months old, then the experiment was started. All operations were in accordance with the guidelines of the National Health Administration and the guidelines for the use of laboratory animals. […]
The Barnes maze test is widely used to assess spatial learning and memory abilities. […] When the cylinder was removed, light was given to allow the mice to explore the platform and find the escape box within 180 s, the time when the mice entered the escape box was recorded by a camera-based EthoVision system (Noldus) and recorded as the escape latency. […] The successful escape latency of mice was recorded and analyzed.

5×FAD transgenic mice [3] = test: Y maze test (working memory ability); type: in vivo; settings: 5×FAD mice, 4 weeks
Protocol: as §1, §2
The Y maze test is a commonly used test method to assess working memory ability. […] The mice were placed in the center of the Y maze to explore the 3 arms freely for 5 min, all movements were recorded by a camera, and the spontaneous alternation ratio was calculated according to the situation of entering onto each arm.

5×FAD transgenic mice [4] = test: Elevated plus maze test (anxiety behavior); type: in vivo; settings: 5×FAD mice, 4 weeks
Protocol: as §1, §2
The elevated plus maze is a recognized behavior test used for anxiety behavior assessment. […] The times of entries onto the open arm and the total times were recorded, and the anxiety behavior of the animal was evaluated by the proportion of entries onto the open arm.

5×FAD transgenic mice [5] = test: Marble burying test (anxiety behavior); type: in vivo; settings: 5×FAD mice, high dose 30 mg/kg/day intraperitoneal, 4 weeks
Protocol: as §1, §2
Each mouse was placed in a cage (28×18×12 cm) containing 20 clean marbles (1.5 cm in diameter), evenly distributed on the surface of clean wood chips (4 cm in depth). After 30 min, each mouse was removed from the cage and the number of marbles buried at least two-thirds was counted.

BV-2 microglia [6] = settings: mouse
BV-2 microglia [7] = test: Cell viability corresponding to the NO production test
[8] = read-out: EC50 (inhibitory effect on the NO production)
[9] = high dose 30 mg/kg/day intraperitoneal
[10] = low dose 15 mg/kg/day intraperitoneal
[11] = read-out: EC50 (inhibition of NO production)

For `C#CCO/N=C(\Cn1ccnc1)c1ccc2c(c1)OCO2` [I-1], the EC50 [1, 8] was 2.07 ± 0.56 µM, the “successful escape latency vs 5×FAD-Vehicle group” value (5×FAD transgenic mice [2]; high dose 30 mg/kg/day intraperitoneal, day 3 and day 4) was “significantly reduced” and the “successful escape latency vs 5×FAD-Vehicle group” value (5×FAD transgenic mice [2]; low dose 15 mg/kg/day intraperitoneal, day 4) was “significantly reduced”. The spontaneous alternation ratio (5×FAD transgenic mice [3]; [9]) was “significantly increased”, the spontaneous alternation ratio (5×FAD transgenic mice [3]; [10]) was “significantly increased” and the “proportion of entries onto the open arm” value (5×FAD transgenic mice [4]; [9]) was “significantly improved”. For the same compound, the “proportion of entries onto the open arm” value (5×FAD transgenic mice [4]; [10]) was “significantly improved”, the “number of marbles buried” value (5×FAD transgenic mice [5]) was “significantly reduced” and the cell viability (BV-2 microglia [6]) was 92.5%.

Work on `C=CCO/N=C(\Cn1ccnc1)c1ccc2c(c1)OCO2` [I-3] yielded an EC50 [1, 8] of 3.42 ± 0.64 µM and a cell viability (BV-2 microglia [6]) of 97.8%.

For `CC(C)=CCO/N=C(\Cn1ccnc1)c1ccc2c(c1)OCO2` [I-5], the EC50 [1, 8] was 2.76 ± 0.34 µM, the melting point was 154.3 to 154.9 °C and the cell viability (BV-2 microglia [6]) was 93.3%.

`c1ccc(CO/N=C(\Cn2ccnc2)c2ccc3c(c2)OCO3)cc1` [I-6] showed an EC50 [1, 8] of 4.43 ± 0.43 µM, a melting point of 186.4 to 187.9 °C and a cell viability (BV-2 microglia [6]) of 97.8%.

`FC(F)(F)c1ccc(CO/N=C(\Cn2ccnc2)c2ccc3c(c2)OCO3)cc1` [I-7] showed an EC50 [1, 8] of 2.37 ± 0.17 µM, a melting point of 121.8 to 122.7 °C and a cell viability (BV-2 microglia [6]) of 92.8%.

Compound `FC(F)(F)c1ccccc1CO/N=C(\Cn1ccnc1)c1ccc2c(c1)OCO2` [I-8] has an EC50 [1, 8] of 2.53 ± 0.47 µM, a melting point of 156.3 to 157.5 °C and a cell viability (BV-2 microglia [6]) of 95.4%.

`N#Cc1ccc(CO/N=C(\Cn2ccnc2)c2ccc3c(c2)OCO3)cc1` [I-9] gave an EC50 [1, 8] of 4.24 ± 1.02 µM and a cell viability (BV-2 microglia [6]) of 91.6%.

`C(=C\c1ccccc1)/CO/N=C(\Cn1ccnc1)c1ccc2c(c1)OCO2` [I-10] gave an EC50 [1, 11] greater than 20 µM, an EC50 [1, 8] greater than 20 µM and a cell viability (BV-2 microglia [6]) of 96.3%.

`Clc1ccc(CO/N=C(\Cn2ccnc2)c2ccc(Cl)cc2Cl)c(Cl)c1` [oxiconazole] showed a cell viability (BV-2 microglia [7]) of 96.2%.

For `O=c1c(O)c(-c2ccc(O)c(O)c2)oc2cc(O)cc(O)c12` [quercetin, reference compound], the EC50 [1, 11] was 9.56 µM, the EC50 [1, 8] was 9.56 ± 1.62 µM and the cell viability (BV-2 microglia [7]) was 94.3%.
